The target in one test is memapsin 2 (Homo sapiens, UniProt P56817). Kind of test: Inhibition of memapsin 2 beta-secretase activity toward fluorogenic substrate FS-2. Type of test: biochemical. The settings on record: pH 4, 37° C., 20 minutes pre-incubation, fluorogenic substrate FS-2, tight-binding model; read-out: M2 Ki.
Another test has as its target Cathepsin D (Homo sapiens, UniProt P07339). Briefly: Inhibition of cathepsin D activity (MALDI-TOF, substrate peptide […]). Type of test: biochemical. To be noted: pH 4.1, 37 degrees C., read-out: Cath D Ki.
A further test relates to Aβ production. Briefly: Cellular Aβ IC50 determination (Aβ40 sandwich ELISA). It is filed as cell-based. To be noted: Cricetulus griseus; Aβ40, Chinese hamster ovary cells over-expressing human APP695 with London and Swedish mutations, 24 h incubation. The protocol: The potency of compounds against memapsin 2 activity was determined in a cellular assay of Aβ production. […] Chinese hamster ovary cells that over-express human APP695 with the London and Swedish mutations were seeded in multi-well plates at 10% confluency. Compounds were dissolved in DMSO to concentrations near 1 mM, and diluted into culture media to a final concentration near 4 μM (final 0.4% DMSO). Compounds were diluted serially and applied to cells in multi-well plates 48 h after seeding. Incubation was continued in 5% CO2 at 37 degrees C. for 24 h. Aliquots were removed and assayed for Aβ40 content using a sandwich ELISA (BioSource International). Amount of Aβ40 over the range of concentration of compounds, relative to control incubations, were fit to a 4-parameter IC50 model.

The term Ki denotes a dissociation constant, usually derived from enzyme kinetics or from competition with a known ligand. What is called IC50 is the point on the concentration scale where inhibition reaches its midpoint.

SMILES strings stand for the structures.

Cathepsin D, sequence (P07339 65-412, species assumed): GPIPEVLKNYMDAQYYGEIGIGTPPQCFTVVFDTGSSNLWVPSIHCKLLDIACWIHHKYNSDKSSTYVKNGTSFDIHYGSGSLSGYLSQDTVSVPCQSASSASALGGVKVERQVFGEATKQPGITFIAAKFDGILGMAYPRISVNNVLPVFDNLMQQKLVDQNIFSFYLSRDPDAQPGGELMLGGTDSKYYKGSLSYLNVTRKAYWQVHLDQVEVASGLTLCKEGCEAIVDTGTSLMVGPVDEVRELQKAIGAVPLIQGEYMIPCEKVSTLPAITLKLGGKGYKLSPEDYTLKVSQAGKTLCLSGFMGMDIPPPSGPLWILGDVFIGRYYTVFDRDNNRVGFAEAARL
memapsin 2, sequence (P56817 46-501): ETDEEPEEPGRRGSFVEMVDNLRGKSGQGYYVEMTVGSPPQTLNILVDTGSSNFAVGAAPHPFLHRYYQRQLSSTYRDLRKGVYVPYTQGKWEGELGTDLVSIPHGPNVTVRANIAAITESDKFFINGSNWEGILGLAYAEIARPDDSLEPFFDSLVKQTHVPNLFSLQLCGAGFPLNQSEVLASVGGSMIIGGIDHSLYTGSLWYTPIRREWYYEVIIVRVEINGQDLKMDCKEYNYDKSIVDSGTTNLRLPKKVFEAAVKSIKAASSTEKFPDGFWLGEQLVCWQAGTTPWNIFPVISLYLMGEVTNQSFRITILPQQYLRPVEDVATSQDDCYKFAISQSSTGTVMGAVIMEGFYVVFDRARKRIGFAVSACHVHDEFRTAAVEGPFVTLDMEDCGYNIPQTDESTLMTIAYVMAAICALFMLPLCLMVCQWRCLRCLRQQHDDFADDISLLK
Procedure for Cathepsin D: After equilibration at 37 degrees C., the reactions were initiated by the addition of an aliquot of memapsin 2. Aliquots were removed at time intervals, and combined with an equal volume of MALDI-TOF matrix (α-hydroxycinnamic acid in acetone, 20 mg/ml) and immediately spotted in duplicate onto a stainless-steel MALDI sample plate. MALDI-TOF mass spectrometry was performed on a PE Biosystems Voyager DE instrument at the Molecular Biology Resource Center on campus. The instrument was operated at 25,000 accelerating volts in positive mode with a 150 ns delay. Ions with a mass-to-charge ratio (m/z) were detected in the range of 650-2000 atomic mass units. Data was analyzed by the Voyager Data Explorer module to obtain ion intensity data for mass species of substrates and corresponding products in a given mixture. Relative product formation was calculated as the ratio of signal intensity of the product to the sum of signal intensities of both product and the corresponding substrate. Relative product formed per unit time was obtained from non-linear regression analysis of the data representing the initial 15% formation of product using the model: 1−e^−kT,
where k is the relative hydrolytic rate constant and T is time in seconds. Initial rates were expressed relative to uninhibited controls and fit to a tight-binding model of competitive inhibition as above.
Procedure for memapsin 2: Potency of compounds were determined by measurement of their inhibition of memapsin 2 activity toward a fluorescent substrate. […] Briefly, assays were performed at pH 4, 37° C., by pre-incubation of memapsin 2 enzyme with compound for 20 minutes. Activity measure was initiated by addition of a fluorogenic substrate FS-2 (Bachem Americas, Torrance, Calif.). Fluorescent signal increase over time was measured as a rate of hydrolysis of the peptide substrate.

On to `CCC(Cn1nc(C)cc1C)C(=O)N[C@@H](CNC(=O)OCCF)C(=O)N[C@@H](CC(C)C)[C@@H](O)C[C@@H](C)C(=O)N[C@H](C(=O)NCC(C)C)C(C)C` (stereo partly drawn) [2-fluoroethyl (2S)-2-(2-((3,5-dimethyl-1H-pyrazol-1-yl)methyl)butanamido)-3-((4S,5S,7R)-5-hydroxy-8-((S)-1-(isobutylamino)-3-methyl-1-oxobutan-2-ylamino)-2,7-dimethyl-8-oxooctan-4-ylamino)-3-oxopropylcarbamate], for which the Ki on memapsin 2 and at Cathepsin D was less than 100 nM in each case. Besides, the IC50 in the test on Aβ production is 6000 to 100000 nM.

For `COCCOC(=O)NC[C@H](NC(=O)[C@@H](C)Cc1nc(C)cs1)C(=O)N[C@@H](CC(C)C)[C@@H](O)C[C@@H](C)C(=O)N[C@H](C(=O)NCC(C)C)C(C)C` [2-methoxyethyl (S)-3-((4S,5S,7R)-5-hydroxy-8-((S)-1-(isobutylamino)-3-methyl-1-oxobutan-2-ylamino)-2,7-dimethyl-8-oxooctan-4-ylamino)-2-((S)-2-methyl-3-(4-methylthiazol-2-yl)propanamido)-3-oxopropylcarbamate], the Ki at memapsin 2 and at Cathepsin D was less than 100 nM each time. Moreover, the IC50 in the test with Aβ production was less than 6000 nM.

Take `Cc1csc(C[C@H](C)C(=O)N[C@@H](CNS(C)(=O)=O)C(=O)N[C@@H](CC(C)C)[C@@H](O)C[C@@H](C)C(=O)N[C@H](C(=O)NCC(C)C)C(C)C)n1` [(2R,4S,5S)-4-hdroxy-N-((S)-1-(isobutylamino)-3-methyl-1-oxobutan-2-yl)-2,7-dimethyl-5-((S)-2-((S)-2-methyl-3-(4-methylthiazol-2-yl)propanamido)-3-(methylsulfonamido)propanamido)octanamide]: the Ki at memapsin 2 and on Cathepsin D was less than 100 nM each time. Besides, in the test with Aβ production, the 50% inhibitory concentration (IC50) was less than 6000 nM.

As for `Cc1csc(C[C@H](C)C(=O)N[C@@H](CN(C)S(C)(=O)=O)C(=O)N[C@@H](CC(C)C)[C@@H](O)C[C@@H](C)C(=O)N[C@H](C(=O)NCC(C)C)C(C)C)n1` [(2R,4S,5S)-4-hydroxy-N-((S)-1-(isobutylamino)-3-methyl-1-oxobutan-2-yl)-2,7-dimethyl-5-((S)-2-((S)-2-methyl-3-(4-methylthiazol-2-yl)propanamido)-3-(N-methylmethylsulfonamido)propanamido)octanamide], the Ki on memapsin 2 was 100 to 600 nM. The molecule also gave an IC50 with Aβ production of 6000 to 100000 nM.

For the molecule `CC[C@@H](Cc1nc(C)cs1)C(=O)N[C@@H](CN(C)OC)C(=O)N[C@@H](CC(C)C)[C@@H](O)C[C@@H](C)C(=O)N[C@H](C(=O)NCC(C)C)C(C)C` [(2R,4S,5S)-4-hydroxy-N-((S)-1-(isobutylamino)-3-methyl-1-oxobutan-2-yl)-5-((S)-3-(methoxy(methyl)amino)-2-((S)-2-((4-methylthiazol-2-yl)methyl)butanamido)propanamido)-2,7-dimethyloctanamide], the Ki on memapsin 2 was in the range of 100 to 600 nM. Moreover, the IC50 in the test with Aβ production was more than 100000 nM.

`CC(=O)NC[C@H](NC(=O)[C@@H](C)Cc1nc(C)cs1)C(=O)N[C@@H](CC(C)C)[C@@H](O)C[C@@H](C)C(=O)N[C@H](C(=O)NCC(C)C)C(C)C` [(2R,4S,5S)-5-((S)-3-acetamido-2-((S)-2-methyl-3-(4-methylthiazol-2-yl)propanamido)propanamido)-4-hydroxy-N-((S)-1-(isobutylamino)-3-methyl-1-oxobutan-2-yl)-2,7-dimethyloctanamide]: the inhibitory constant (Ki) on memapsin 2 is less than 100 nM; at Cathepsin D, 100 to 600 nM. In addition, the IC50 with Aβ production lay in the range of 6000 to 100000 nM.

With `Cc1csc(C[C@H](C)C(=O)N[C@@H](CN)C(=O)N[C@@H](CC(C)C)[C@@H](O)C[C@@H](C)C(=O)N[C@H](C(=O)NCC(C)C)C(C)C)n1` [(2R,4S,5S)-5-((S)-3-amino-2-((S)-2-methyl-3-(4-methylthiazol-2-yl)propanamido)propanamido)-4-hydroxy-N-((S)-1-(isobutylamino)-3-methyl-1-oxobutan-2-yl)-2,7-dimethyloctanamide], the Ki on memapsin 2 and on Cathepsin D was 100 to 600 nM throughout. Besides, in the test on Aβ production, the IC50 fell in the range of 6000 to 100000 nM.

For the molecule `Cc1csc(C[C@H](C)C(=O)N[C@@H](CC(=O)N(C)C)C(=O)N[C@@H](CC(C)C)[C@@H](O)C[C@@H](C)C(=O)N[C@H](C(=O)NCC(C)C)C(C)C)n1` [(S)-N1-((4S,5S,7R)-5-hydroxy-8-((S)-1-(isobutylamino)-3-methyl-1-oxobutan-2-ylamino)-2,7-dimethyl-8-oxooctan-4-yl)-N4,N4-dimethyl-2-((S)-2-methyl-3-(4-methylthiazol-2-yl)propanamido)succinamide], the Ki is 100 to 600 nM on memapsin 2 and less than 100 nM at Cathepsin D.

Regarding `Cc1nc(COC(=O)N[C@@H](CC(=O)OCc2ccccc2)C(=O)N[C@@H](CC(C)C)[C@@H](O)C[C@@H](C)C(=O)N[C@H](C(=O)NCC(C)C)C(C)C)c(C)o1` [(S)-benzyl 3-(((2,5-dimethyloxazol-4-yl)methoxy)carbonylamino)-4-((4S,5S,7R)-5-hydroxy-8-((S)-1-(isobutylamino)-3-methyl-1-oxobutan-2-ylamino)2,7-dimethyl-8-oxooctan-4-ylamino)-4-oxobutanoate], the Ki at memapsin 2 and on Cathepsin D was less than 100 nM throughout.

For `CC[C@H](Cn1nc(C)cc1C)C(=O)N[C@@H](CNC(=O)OC(C)(C)C)C(=O)N[C@@H](CC(C)C)[C@@H](O)C[C@@H](C)C(=O)N[C@H](C(=O)NCC(F)(F)F)C(C)C` [tert-butyl (S)-2-((R)-2-((3,5-dimethyl-1H-pyrazol-1-yl)methyl)butanamido)-3-((4S,5S,7R)-5-hydroxy-2,7-dimethyl-8-((S)-3-methyl-1-oxo-1-(2,2,2-trifluoroethylamino)butan-2-ylamino)-8-oxooctan-4-ylamino)-3-oxopropylcarbamate], the figures for the Ki on memapsin 2 and on Cathepsin D were more than 600 nM and 100 to 600 nM, respectively.

For the molecule `CC[C@@H](Cn1nc(C)cc1C)C(=O)N[C@@H](CNC(=O)OC(C)(C)C)C(=O)N[C@@H](CC(C)C)[C@@H](O)C[C@@H](C)C(=O)N[C@H](C(=O)NCc1ccccn1)C(C)C` [tert-butyl (S)-2-((S)-2-((3,5-dimethyl-1H-pyrazol-1-yl)methyl)butanamido)-3-((4S,5S,7R)-5-hydroxy-2,7-dimethyl-8-((S)-3-methyl-1-oxo-1-(pyridin-2-ylmethylamino)butan-2-ylamino)-8-oxooctan-4-ylamino)-3-oxopropylcarbamate], on memapsin 2, the Ki is less than 100 nM. The molecule also returned an IC50 in the test on Aβ production of 6000 to 100000 nM.

For `CC[C@@H](Cn1nc(C)cc1C)C(=O)N[C@@H](CNC(=O)OC(C)(C)C)C(=O)N[C@@H](CC(C)C)[C@@H](O)C[C@@H](C)C(=O)N[C@H](C(=O)NCc1ccncc1)C(C)C` [tert-butyl (S)-2-((S)-2-((3,5-dimethyl-1H-pyrazol-1-yl)methyl)butanamido)-3-((4S,5S,7R)-5-hydroxy-2,7-dimethyl-8-((S)-3-methyl-1-oxo-1-(pyridin-4-ylmethylamino)butan-2-ylamino)-8-oxooctan-4-ylamino)-3-oxopropylcarbamate], the Ki on memapsin 2 is less than 100 nM. The IC50 in the test on Aβ production was less than 6000 nM.

In the case of `COCO[C@@H](Cn1nc(C)cc1C)C(=O)N[C@@H](CNC(=O)OC(C)(C)C)C(=O)N[C@@H](CC(C)C)[C@@H](O)C[C@@H](C)C(=O)N[C@H](C(=O)NCC(C)C)C(C)C` [tert-butyl (S)-2-((S)-3-(3,5-dimethyl-1H-pyrazol-1-yl)-2-(methoxymethoxy)propanamido)-3-((4S,5S,7R)-5-hydroxy-8-((S)-1-(isobutylamino)-3-methyl-1-oxobutan-2-ylamino)-2,7-dimethyl-8-oxooctan-4-ylamino)-3-oxopropylcarbamate], the results for the inhibition constant Ki on memapsin 2 and at Cathepsin D were 100 to 600 nM and less than 100 nM, respectively.

Regarding `Cc1csc(C[C@H](C)C(=O)N[C@@H](CNC(=O)OC(C)(C)C)C(=O)N[C@@H](Cc2cc(F)cc(F)c2)[C@@H](O)C[C@@H](C)C(=O)N[C@H](C(=O)NCC(C)C)C(C)C)n1` [tert-butyl (S)-3-((2S,3S,5R)-1-(3,5-difluorophenyl)-3-hydroxy-6-((S)-1-(isobutylamino)-3-methyl-1-oxobutan-2-ylamino)-5-methyl-6-oxohexan-2-ylamino)-2-((S)-2-methyl-3-(4-methylthiazol-2-yl)propanamido)-3-oxopropylcarbamate], on memapsin 2, the Ki was less than 100 nM. The same molecule came in with an IC50 in the test on Aβ production of 6000 to 100000 nM.

Take `COc1ccc(C[C@H](NC(=O)[C@H](CNC(=O)OC(C)(C)C)NC(=O)[C@@H](C)Cc2nc(C)cs2)[C@@H](O)C[C@@H](C)C(=O)N[C@H](C(=O)NCC(C)C)C(C)C)cc1` [tert-butyl (S)-3-((2S,3S,5R)-3-hydroxy-6-((S)-1-(isobutylamino)-3-methyl-1-oxobutan-2-ylamino)-1-(4-methoxyphenyl)-5-methyl-6-oxohexan-2-ylamino)-2-((S)-2-methyl-3-(4-methylthiazol-2-yl)propanamido)-3-oxopropylcarbamate]: the results for the Ki on memapsin 2 and on Cathepsin D were more than 600 nM and less than 100 nM, respectively.

Take `Cc1csc(C[C@H](C)C(=O)N[C@@H](CNC(=O)OC(C)(C)C)C(=O)N[C@@H](CC(C)C)[C@@H](O)C[C@@H](C)C(=O)N[C@H](CS(=O)(=O)CC(C)C)C(C)C)n1` [tert-butyl (S)-3-((4S,5S,7R)-5-hydroxy-8-((S)-1-(isobutylsulfonyl)-3-methylbutan-2-ylamino)-2,7-dimethyl-8-oxooctan-4-ylamino)-2-((S)-2-methyl-3-(4-methylthiazol-2-yl)propanamido)-3-oxopropylcarbamate]: the Ki on memapsin 2 and at Cathepsin D was more than 600 nM each time.

These data come from patent US7659289B2, “Hydroxyethylene-based β-secretase inhibitors and use thereof” (CoMentis, Inc., priority 2004, dated 2010).
